Test results: US20180272034A1, “USE OF CSA COMPOUNDS TO PREVENT MICROBIAL BUILD-UP OR FOULING OF MEDICAL IMPLANTS” (BRIGHAM YOUNG UNIVERSITY, priority 2017, published 2018)
Values joined by “and” are separate entries in the source; they are usually repeats but may differ in a detail not shown here. Equal entries are not always repeated.

How the values were obtained:
[1] = tested on: Pseudomonas aeruginosa (PA01); assay: Coated endotracheal tube segments, daily re-inoculation, growth in medium; assay type: cell-based; parameters: key to bacterial growth in medium, Day 1 / bacterial growth in medium, Day 2 / bacterial growth in medium, Day 3 / bacterial growth in medium, Day 4 / bacterial growth in medium, Day 5 / bacterial growth in medium, Day 6 / bacterial growth in medium, Day 7 / bacterial growth in medium, Day 10 / bacterial growth in medium, Day 8 / bacterial growth in medium, Day 9: N=no growth; G=growth
Procedure: (§1) A hydrogel coating containing 10% CSA-131 HCl and 3% citric acid, relative to the hydrogel solids, was tested for antibacterial efficacy using endotracheal tube segments (5.0 mm). These tube segments (surface area of ca. 1.5 cm^2) were dip coated and cured to give coatings of approximately 10 microns. Coated tube segments were washed in phosphate buffered saline (PBS) for varied amounts of time before testing. Antibacterial testing involved immersing tube segments in 10% TSB in PBS (1.0 mL) and inoculating with Pseudomonas aeruginosa (PA01)@10^6 colony forming units (CFU). Samples were incubated for 24 h, and bacterial growth in the medium was assayed visually (i.e., turbidity in the medium is caused by unrestricted bacterial growth). […] And the converse is true: if growth is supported in the medium that the device is colonized, to some extent.
(§2) After 24 h of incubation, tube segments were immersed in fresh growth media (10% TSB in PBS, 1 mL), re-inoculated, and incubated. […] Experiments were performed in triplicate. N=no growth, G=growth.
(§3) Antibacterial activity of a hydrogel coating (ca. 10 microns) containing CSA-131 2-NDSA (10% by weight relative to hydrogel solids) was determined as described in Example 8 using methicillin-resistant Staphylococcus aureus (MRSA) and Pseudomonas aeruginosa (PA01).

[2] = tested on: methicillin-resistant Staphylococcus aureus (MRSA); assay: as above; assay type: cell-based; parameters: key to bacterial growth in medium, Day 1 / bacterial growth in medium, Day 10 / bacterial growth in medium, Day 2 / bacterial growth in medium, Day 3 / bacterial growth in medium, Day 4 / bacterial growth in medium, Day 5 / bacterial growth in medium, Day 6 / bacterial growth in medium, Day 7 / bacterial growth in medium, Day 8 / bacterial growth in medium, Day 9: N=no growth; G=growth
Procedure: as §1, §2, §3

PA01 = assay: Drip flow system, whole coated endotracheal tubes; assay type: cell-based, Pseudomonas aeruginosa; details: hydrogel 10% CSA-131 2-NDSA; three inoculations of 10^7 CFU, 24 h; detection limit 10 CFU
Procedure: At eight-hour intervals, bacteria (PA01, 10^6 CFU/mL) were passed through the tubes for 10 min (total of 10^7 CFU) at each interval. At a time point 30 min after introduction of bacteria, the growth medium flowing through the tubes was collected and plated to determine the number of bacterial colonies present. After 24 h, tubes were removed and sections (5 mm) were cut from above and below the cuff. These were sonicated in a neutralizing medium and the resulting solution was plated to quantify bacterial biofilm growth.

[3] = Hydrogel coating stability and reaction with ethylene oxide (ETO)
Procedure: Releases of CSA-131 from hydrogel-based coatings were investigated, including examining coating stability and reaction of the coating with ethylene oxide (ETO) during sterilization processes. […] To mask this reactivity, coatings were prepared including varies percentages of citric acid to form non-volatile salts of the CSA compound.
Using a jet mill (Fluid Energy), CSA-131 2-NDSA was milled to an average particle size of 200 nm.

[4] = PA01, three replicates, hydrogel coating 10% CSA-131 2-NDSA, re-inoculated every 24 h
[5] = three replicates, hydrogel coating 10% CSA-131 2-NDSA, re-inoculated every 24 h

CCCCCCCCCCCCNCCC[C@@H](C)[C@H]1CC[C@H]2[C@@H]3[C@H](OCCCN)C[C@@H]4C[C@H](OCCCN)CC[C@]4(C)[C@H]3C[C@H](OCCCN)[C@]12C.O=S(=O)(O)c1cccc2c(S(=O)(=O)O)cccc12.O=S(=O)(O)c1cccc2c(S(=O)(=O)O)cccc12 [CSA-131 2-NDSA]
bacterial growth in medium, Day 1 [1, 4]: N
bacterial growth in medium, Day 2 [1, 4]: N
bacterial growth in medium, Day 3 [1, 4]: N
bacterial growth in medium, Day 4 [1, 4]: N
bacterial growth in medium, Day 5 [1, 4]: N
bacterial growth in medium, Day 6 [1, 4]: N
bacterial growth in medium, Day 7 [1, 4]: N
bacterial growth in medium, Day 8 [1, 4]: G
bacterial growth in medium, Day 9 [1, 4]: G
bacterial growth in medium, Day 10 [1, 4]: G
time coating prevented bacterial growth ([1]; PA01, hydrogel coating ca. 10 microns, 10% CSA-131 2-NDSA): seven
time coating prevented bacterial growth ([2]; hydrogel coating ca. 10 microns, 10% CSA-131 2-NDSA): eight
bacterial growth in medium, Day 1 [2, 5]: N
bacterial growth in medium, Day 2 [2, 5]: N
bacterial growth in medium, Day 3 [2, 5]: N
bacterial growth in medium, Day 4 [2, 5]: N
bacterial growth in medium, Day 5 [2, 5]: N
bacterial growth in medium, Day 6 [2, 5]: N
bacterial growth in medium, Day 7 [2, 5]: G and N (2×)
bacterial growth in medium, Day 8 [2, 5]: G and N (2×)
bacterial growth in medium, Day 9 [2, 5]: G
bacterial growth in medium, Day 10 [2, 5]: G
bacteria from sonication of tube sections (biofilm) (PA01): no bacteria were detected
bacteria in collected effluent from tubes (PA01): no bacteria were detected
coating stability ([3]; CSA-131 2-NDSA in hydrogel coating): stable coatings
reaction with ETO during sterilization ([3]; CSA-131 2-NDSA particles (200 nm) in hydrogel coating): did not react with ETO
